The source of these data is US3984432A, “Color photographic recording material” (priority 1973, dated 1976).

Structures are written as SMILES.

The first data set can be described thus: Absorption maximum after colour development in a photographic silver halide layer according to Use Example I. The format is physicochemical.
Conditions: not given
The protocol: The compounds of the formulae which follow are prepared according to methods which are in themselves known, from the corresponding 4-equivalentcoupling agents (the corresponding compounds with hydrogen in the position marked with *, in place of the substituents drawn). With regard to methods of manufacture, compare DT-OS or DT-AS 1,236,332, 2,043,271, 1,547,672 or 1,187,477. Next to the formula, the absorption maximum in nm is specified in each case (see footnote to Table I). ##SPC8##
*)After colour development of the coupling agents in a photographic silve
halide layer according to Use Example I
0.3 mmol of coupling agent of the formula (215) is dissolved in 2.0 ml of tricresyl phosphate/methylene chloride (3:7). The methylene chloride is evaporated off, 6.0 ml of an 8% strength aqueous solution of sodium isopropylnaphthalene-sulphonate, 20.0 ml of 6% strength gelatine solution and 3.4 ml of water are added and the mixture is adjusted to pH 6.5 and emulsified for 5 minutes by means of an ultrasonic apparatus with an output of 100 watt.
5.0 of coupling agent emulsion freshly treated with ultrasonics, 3.3 ml of silver bromide emulsion of pH 6.5, containing 1.4% of silver and 6.0% of gelatine, 2.0 ml of 1% strength aqueous solution of the hardener of the formula [formula] and 1.7 ml of water are mixed with one another and cast at 40°C on a substrated glass plate of size 13 cm × 18 cm. After solidifying at 10° C, the plate is dried in a drying cabinet with circulating air at 32° C.
A strip cut to 4.0 cm × 6.5 cm is exposed to 500 Lux/cm^2 under a step wedge for 2 seconds and is subsequently treated at 24° C as follows: […]
For `CCCCOP(=O)(CCCc1ccc(NC(=O)C(Cl)C(=O)c2ccccc2)cc1)OCCCC` (stereo not drawn) [(147)], the “Abs.max. (single maximum)” value amounted to 436 nm.
In the case of `CCCCC(CC)COP(=O)(CCCNC(=O)c1ccc(Cl)c(NC(=O)CC(=O)c2ccccc2OC)c1)OCC(CC)CCCC` (stereo not drawn) [(133)], the “Abs.max. (single maximum)” value is 436 nm.
As for `CC(C)OP(=O)(OC(C)C)C1(C)CC(NC(=O)c2ccc(Oc3ccccc3)c(NC(=O)CC(=O)c3ccc(Cl)cc3)c2)CC(C)(C)C1` (stereo not drawn) [(144)], the “Abs.max. (single maximum)” value was 441 nm.
In the case of `CCCCCCOP(=O)(OCCCCCC)c1ccc(NC(=O)c2cccc(NC(=O)CC(=O)c3ccc(Cl)cc3)c2)cc1` [(145)], the “Abs.max. (single maximum)” value was determined as 449 nm.
Same read-out and setting: next, `CCCCOP(=O)(OCCCC)C(CC)OC(=O)c1ccc(NC(=O)CC(=O)c2ccccc2OC)cc1` (stereo not drawn) [(142)]: 435 nm.
On to `CC(C)CCOP(=O)(CCCc1ccc(NC(=O)CC(=O)c2ccc(Cl)cc2)cc1)OCCC(C)C` [(132)], for which the “Abs.max. (single maximum)” value was 438 nm.
For `CCOP(=O)(OCC)C(C)(C)NC(=O)c1cccc(NC(=O)CC(=O)c2ccc([N+](=O)[O-])cc2)c1` [(110)], the “Abs.max. (single maximum)” value was 440 nm.
On the same count and under the same terms, next, `CC(C)(C)P(=O)(Oc1ccccc1)Oc1ccc(NC(=O)CC(=O)c2ccccc2)cc1` (stereo not drawn) [(129)]: 440 nm.

The same data set, now with this note: pyrazolone coupling agents.
Turning to `CCOP(=O)(CCCCCOc1cc(OCCCCCP(=O)(OCC)OCC)cc(C(=O)Nc2ccc(C(=O)NC3=NN(c4c(Cl)cc(Cl)cc4Cl)C(=O)C3)cc2)c1)OCC` [(212)], the “Abs.max., first of two maxima (subsidiary maximum)” value (“Abs.max., first of two maxima” for short) amounted to 434 nm and the “Abs.max., second of two maxima (absorption maximum)” value (from here on “Abs.max., second of two maxima”) is on record as 544 nm.
On to `CCCCOP(=O)(CCCOc1cc(OCCCP(=O)(OCCCC)OCCCC)cc(C(=O)Nc2cccc(NC3=NN(c4ccc(S(C)(=O)=O)cc4)C(=O)C3)c2)c1)OCCCC` [(430)], for which the “Abs.max., first of two maxima” value worked out at 430 nm and the “Abs.max., second of two maxima” value came to 540 nm.
For the compound `CCCCOP(=O)(CCCOc1cc(OCCCP(=O)(OCCCC)OCCCC)cc(C(=O)Nc2cccc(C(=O)NC3=NN(c4c(C)cc(OC)cc4Cl)C(=O)C3)c2)c1)OCCCC` [(260)], the “Abs.max., first of two maxima” value was 440 nm and the “Abs.max., second of two maxima” value amounted to 535 nm.
The matching figures for `CCOP(=O)(CCCOc1cc(OCCCP(=O)(OCC)OCC)cc(C(=O)NC2=NN(c3c(Cl)cc(Cl)cc3Cl)C(=O)C2)c1)OCC` [(209)]: 436 nm and 540 nm.
For `CCOP(=O)(CCCCCOc1cc(OCCCCCP(=O)(OCC)OCC)cc(C(=O)Nc2cccc(C(=O)NC3=NN(c4ccccc4)C(=O)C3)c2)c1)OCC` [(226)], in that order: 439 nm and 534 nm.
The matching figures for `CCCCOP(=O)(CCCOc1cc(OCCCP(=O)(OCCCC)OCCCC)cc(C(=O)Nc2cccc(NC(=O)NC3=NN(c4c(Cl)cc(Cl)cc4Cl)C(=O)C3)c2)c1)OCCCC` [(273)]: 430 nm and 547 nm.
For `CCCCC(CC)COP(=O)(CCCOc1cccc(C(=O)Nc2cccc(C(=O)NC3=NN(c4ccccc4)C(=O)C3)c2)c1)OCC(CC)CCCC` (stereo not drawn) [(225)], the “Abs.max., first of two maxima” value was 440 nm and the “Abs.max., second of two maxima” value is reported as 532 nm.
Regarding `CCCCOP(=O)(CCCOc1cc(OCCCP(=O)(OCCCC)OCCCC)cc(C(=O)NC2=NN(c3nc4ccccc4s3)C(=O)C2)c1)OCCCC` [(257)], the “Abs.max., first of two maxima” value came to 430 nm and the “Abs.max., second of two maxima” value came out at 537 nm.
The matching figures for `CCCCC(CC)COP(=O)(CCCOc1cccc(C(=O)Nc2cccc(C(=O)NC3=NN(c4c(Cl)cc(OC)cc4Cl)C(=O)C3)c2)c1)OCC(CC)CCCC` (stereo not drawn) [(267)]: 436 nm and 536 nm.
The matching figures for `CCCCC(CC)COP(=O)(CCCOc1cccc(C(=O)Nc2cccc(C(=O)NC3=NN(c4c(C)cc(Cl)cc4Cl)C(=O)C3)c2)c1)OCC(CC)CCCC` (stereo not drawn) [(269)]: 438 nm and 540 nm.
The matching figures for `CC(C)OP(=O)(CCCOc1cccc(C(=O)NC2=NN(c3c(Cl)cc(Cl)cc3Cl)C(=O)C2)c1)OC(C)C` [(217)]: 435 nm and 538 nm.
With `CCOP(=O)(CCCOc1cccc(NC2=NN(c3cccc(Cl)c3)C(=O)C2)c1)OCC` [(402)], the “Abs.max., first of two maxima” value is recorded as 430 nm and the “Abs.max., second of two maxima” value is recorded as 534 nm.
On to `CC(C)OP(=O)(CCCCCOc1cc(OCCCCCP(=O)(OC(C)C)OC(C)C)cc(C(=O)Nc2cccc(C(=O)NC3=NN(c4c(Cl)cc(Cl)cc4Cl)C(=O)C3)c2)c1)OC(C)C` [(243)], for which the “Abs.max., first of two maxima” value is 434 nm and the “Abs.max., second of two maxima” value turned out to be 544 nm.
For `CCOP(=O)(CCCCCOc1cccc(C(=O)Nc2ccc(C(=O)NC3=NN(c4c(Cl)cc(Cl)cc4Cl)C(=O)C3)cc2)c1)OCC` [(207)], in that order: 434 nm and 540 nm.
The matching figures for `CCOP(=O)(CCCOc1cccc(C(=O)Nc2cccc(NC3=NN(c4ccccc4)C(=O)C3)c2)c1)OCC` [(414)]: 430 nm and 530 nm.
For `CCCCOP(=O)(CCCOc1cccc(C(=O)Nc2cccc(C(=O)NC3=NN(c4c(Cl)cc(Cl)cc4Cl)C(=O)C3)c2)c1)OCCCC` [(220)], in that order: 434 nm and 544 nm.
Consider `CCOP(=O)(CCCCCOc1cc(OCCCCCP(=O)(OCC)OCC)cc(C(=O)NC2=NN(c3c(Cl)cc(Cl)cc3Cl)C(=O)C2)c1)OCC` [(214)], for which the “Abs.max., first of two maxima” value stood at 432 nm and the “Abs.max., second of two maxima” value is on record as 540 nm.
On to `CCCCOP(=O)(CCCOc1cccc(C(=O)Nc2cccc(NC3=NN(c4ccc(S(C)(=O)=O)cc4)C(=O)C3)c2)c1)OCCCC` [(429)], for which the “Abs.max., first of two maxima” value is recorded as 430 nm and the “Abs.max., second of two maxima” value was 538 nm.
The matching figures for `CCOP(=O)(CCCOc1cccc(C(=O)Nc2ccc(C(=O)NC3=NN(c4c(Cl)cc(Cl)cc4Cl)C(=O)C3)cc2)c1)OCC` [(201)]: 432 nm and 542 nm.
Take `CCCCOP(=O)(CCCOc1cc(OCCCP(=O)(OCCCC)OCCCC)cc(C(=O)Nc2cccc(NC3=NN(c4c(Cl)cc(Cl)cc4Cl)C(=O)C3)c2)c1)OCCCC` [(424)]: the “Abs.max., first of two maxima” value turned out to be 427 nm and the “Abs.max., second of two maxima” value is given as 532 nm.
As for `CCCCOP(=O)(CCCOc1cc(OCCCP(=O)(OCCCC)OCCCC)cc(C(=O)Nc2ccc(C(=O)NC3=NN(c4c(Cl)cc(Cl)cc4Cl)C(=O)C3)cc2)c1)OCCCC` [(218)], the “Abs.max., first of two maxima” value stood at 436 nm and the “Abs.max., second of two maxima” value is reported as 542 nm.
For `CCCCOP(=O)(CCCOc1cccc(C(=O)Nc2cccc(NC3=NN(c4ccccc4)C(=O)C3)c2)c1)OCCCC` [(418)], in that order: 430 nm and 530 nm.
Regarding `CC(C)OP(=O)(CCCOc1cccc(C(=O)Nc2ccc(C(=O)NC3=NN(c4c(Cl)cc(Cl)cc4Cl)C(=O)C3)cc2)c1)OC(C)C` [(210)], the “Abs.max., first of two maxima” value is given as 434 nm and the “Abs.max., second of two maxima” value was found to be 543 nm.
The matching figures for `CCCCOP(=O)(CCCOc1cc(OCCCP(=O)(OCCCC)OCCCC)cc(C(=O)Nc2ccc(Cl)c(NC3=NN(c4c(Cl)cc(Cl)cc4Cl)C(=O)C3)c2)c1)OCCCC` [(428)]: 430 nm and 537 nm.
For `CCCCOP(=O)(CCCOc1cc(OCCCP(=O)(OCCCC)OCCCC)cc(C(=O)Nc2cccc(NC3=NN(c4ccccc4)C(=O)C3)c2)c1)OCCCC` [(423)], in that order: 430 nm and 530 nm.
For `CCCCC(CC)COP(=O)(CCCOc1cccc(C(=O)Nc2cccc(NC3=NN(c4c(Cl)cc(Cl)cc4Cl)C(=O)C3)c2)c1)OCC(CC)CCCC` (stereo not drawn) [(422)], in that order: 426 nm and 530 nm.
As for `CC(C)OP(=O)(CCCOc1cc(OCCCP(=O)(OC(C)C)OC(C)C)cc(C(=O)Nc2cccc(C(=O)NC3=NN(c4ccccc4)C(=O)C3)c2)c1)OC(C)C` [(238)], the “Abs.max., first of two maxima” value was 440 nm and the “Abs.max., second of two maxima” value is recorded as 530 nm.
On to `CCOP(=O)(CCCOc1cccc(C(=O)Nc2cccc(C(=O)NC3=NN(c4ccccc4)C(=O)C3)c2)c1)OCC` [(223)], for which the “Abs.max., first of two maxima” value is 440 nm and the “Abs.max., second of two maxima” value came out at 534 nm.
The matching figures for `CCCCOP(=O)(CCCOc1cccc(C(=O)Nc2cccc(NC3=NN(c4c(Cl)cc(Cl)cc4Cl)C(=O)C3)c2)c1)OCCCC` [(419)]: 427 nm and 532 nm.
